In a melting point compilation (Tetko et al.; mined from patent text by program, amines drawn as free bases though some values may be those of a salt):

SMILES | melting point [°C]
N#CCNC(=O)C1(NC(=O)c2ccc(N3CCNCC3)cc2)CCCCC1 | 206 to 210
CCc1cnc(Nc2ccccn2)s1 | 113
Nc1ncnc2c1c(-c1ccc(Oc3ccc(F)cc3)cc1)cn2C1CCOC1 (stereo not drawn) | 198 to 199
CC=Cc1ccc(CCNS(=O)(=O)c2ccc(Cl)cc2)cc1 | 153 to 155
COc1ccccc1C(=O)c1cccc(N)c1 | 81
O=P(O)(O)C(F)(F)c1ccc(CN(c2ccc(Cl)c(Cl)c2)c2nnc(-c3cccc(Oc4cccc(-c5nnn[nH]5)c4)c3)s2)cc1Br | 232 to 235
Cc1cc(C2(C(F)(F)F)CC(c3ccc(F)cc3)=NO2)ccc1NC(=O)c1cccc(I)c1C(=O)NC(C)C (stereo not drawn) | 128 to 130
Nc1ccc(CS(=O)(=O)NC2CCCCC2)cc1 | 141 to 143
O=C1NCC(CCc2ccccc2F)O1 (stereo not drawn) | 73 to 74
Nc1ccccc1SCc1noc(CSc2ccccc2N)n1 | 68
O=[N+]([O-])c1cccc([N+](=O)[O-])c1NCCO | 77
C#CCN1C(=O)COc2cc(F)c([N+](=O)[O-])cc21 | 105 to 107
CSc1nc(F)cc(NN)n1 | 153 to 154
CS(=O)(=O)c1ccc(-c2[nH]c3ccccc3c2-c2ccccc2)cc1 | 221 to 222
COc1ncc(C(=O)N(C)Cc2cc(C(F)(F)F)cc(C(F)(F)F)c2)c(-c2ccccc2)n1 | 101 to 102
COc1cc(F)nc(N)n1 | 171 to 173
FC(F)(F)Oc1ccc(C=Cc2nc[nH]n2)cc1 | 125 to 127

SMILES | melting point [°C]
NS(=O)(=O)c1cccc(-c2cn(-c3nc(-c4ccc(Cl)c(Cl)c4)cc(C(F)(F)F)n3)cn2)c1 | 239
CC#Cc1ncn2c1[C@@H]1CCCN1C(=O)c1c(Cl)cccc1-2 | 208 to 209
[O-][N+]1=C(c2ccco2)c2cc(Cl)ccc2N(CCCl)C(CCl)C1 (stereo not drawn) | 158 to 159
Cc1cc(O)c(Oc2ccccc2C#N)cc1[N+](=O)[O-] | 157 to 159
N#Cc1ccccc1NCc1nc2ccc(F)cc2c(=O)n1-c1cccnc1Cl | 183 to 187
O=S(=O)(c1ccc(Cl)cc1)C(C/C=C\CO)c1cc(F)ccc1F (stereo not drawn) | 60 to 63
N#Cc1ccc2c(c1)C(=O)c1cc(N3CCCCC3)ccc1C2=O | 274 to 275
COc1cc(C=O)cc(OC)c1C(C)(C)O | 55
NC1=Nc2ccc(Cl)cc2C2CCCC12F (stereo not drawn) | 223
CSc1ccc(-c2ccc(C(=O)Nc3ccc4cc(CN5CCCC5)cnc4c3C)c(F)c2)cc1 | 189 to 190
CNC(=O)CN1CCC(O)C1=O (stereo not drawn) | 129 to 130
O=C(Nc1ccc(OCc2ccoc2)c2ccccc12)c1cc(F)cc(N2CCCCC2)c1 | 152 to 153
Cc1nc2cc(NC(=O)c3cc4cccnc4n3Cc3ccncc3)ccc2n1C | 236 to 246
Cc1ccc(OC2=C(Oc3ccc(C)c(C)c3)C(F)(F)C(F)(F)C2(F)F)cc1C | 65 to 67
COc1cc(Cl)c(C(=O)Nc2ccc(C(C)(C)C#N)cc2)cc1OC | 142 to 144
O=S(=O)(Cc1ccc(C(O)c2ccc(Cl)cc2)cc1)C(F)(F)F (stereo not drawn) | 113 to 115
NC1(CC(=O)O)CCCCC1 | 200 to 204

Results, then the molecule that gave them:

melting point [°C] | SMILES
130 to 132 | CCNc1ccc(-c2ccnc3c(C(=O)c4cccs4)cnn23)cc1
40 to 42 | CCCCCCCCCCCCOCCOc1ccc(C(=O)OC)cc1
87 | CCCCn1c(=O)n(CCCCC(C)=O)c(=O)c2c1ncn2CC(C)=O
138 to 140 | CCCCCCCCCCCCc1nnn(C(CCCCCCCCCCCC)C(=O)Nc2c(OC)cc(OC)cc2OC)n1 (stereo not drawn)
104 to 105 | O=C1C(=O)c2ccc(Br)cc2C2=C1SCC1(CCN(CC(O)COc3ccc4cc(Br)ccc4c3)CC1)O2 (stereo not drawn)
122 to 123 | O=C(O)CCc1oc(Sc2nncn2-c2ccccc2)nc1-c1ccc(Cl)cc1
188 to 189 | CC(=O)Nc1ccc(CC(=O)NCCc2ccc3[nH]cc(CC#N)c3c2)cc1
63 to 64 | C=CCOC(=O)c1ccc(COC(=O)c2ccc(OC(C)C)c(C(C)(C)C)c2)cc1
77 | CCNC(=O)Oc1cnn(C(C)(C)C)c1
82 to 84 | CCCCCCOC(=O)C(=O)Nc1cc(C#N)cc(NC(=O)C(=O)OCCCCCC)c1Cl
197 to 200 | CCOc1cc(CF)nc2nc(S(=O)(=O)Nc3c(Cl)ccc(C)c3Cl)nn12
59 to 63.5 | CC(C)C[C@@H](C#N)NC(=O)[C@@H]1CCCC[C@@H]1NC(=O)c1cc2ccccc2n1CCO
48 to 50 | C=CCc1cc(CC(=O)NCCCC)ccc1O
241 to 243 | CCc1c(-c2ccncc2)[nH]c(-c2ccncc2)c1C(C)=O
99 | CCCC(=O)CC(=O)c1ccc(C2CCC(CC)CC2)cc1 (stereo not drawn)
120 | COc1ccc(CCN(C)CCCCc2ccc(NC(=O)c3cccc4c(=O)c5ccccc5[nH]c34)cc2)cc1OC
90 to 91 | CC(=O)Oc1ccccc1C(=O)OCCSS(C)(=O)=O
112 to 116 | CCCCCNC(=O)c1cnc2cccc(C)n2c1=O
312 | COc1ccccc1-n1c(=O)[nH]c2c(C(N)=O)nc(-c3cccc4[nH]cnc34)nc21
109 to 110 | O=C(CCc1cccnc1)NCCCC1CCN(C(c2ccccc2)c2ccccc2)CC1

melting point [°C] | SMILES
230 | COc1cc(N)c(Cl)cc1C(=O)NCCN1CCC(n2c(=O)[nH]c3ccccc32)CC1
122 | O=C(Nc1cccnc1Cl)c1ccccc1F
234 to 235 | Cc1cc(-c2nc3cc(F)cc(F)c3c(=O)[nH]2)cc(C)c1OCCN1CCCC1
255 to 256 | CCc1ccc2c(=O)c(C(N)=O)cn(C)c2c1
112 to 119 | COC(=O)CCn1cc(C)c(=O)[nH]c1=O
231 to 232 | CC(=O)Nc1ccc(S(=O)(=O)Nc2cscn2)cc1
161 to 162 | COc1cccc2sc(NC(=O)COC(C)=O)nc12
141 to 143 | Cc1c(SCCCn2c([N+](=O)[O-])cnc2C)ccnc1CSc1ncccn1
80 to 88 | CCCCCCCCCCCCn1nnnc1NC(=O)Nc1c(C(C)C)cccc1C(C)C
162 | CCCCS(=O)(=O)Nc1ccc(Oc2cccc3cccnc23)cc1
> 220 | COc1cc2ncnc(-c3cn(S(C)(=O)=O)c4ccccc34)c2cc1OC
136 to 137 | CCOC(=O)C(CC(=O)c1ccc2cc(OC)ccc2c1)C(=O)c1ccccc1 (stereo not drawn)
125 to 126 | COc1ccc(OC)c2c1C(=O)C=C(SCCCO)C2=O
176 | CC(=O)NCc1ccc(CC(=NNc2ccc(Br)cn2)c2ccccc2)o1
252 to 253 | Cc1c(Br)c(=O)c(C(=O)O)c(-c2ccccc2)n1C
260 to 262 | COc1cc(-c2oc3ccccc3c(=O)c2C(=O)O)cc(OC)c1OC
59 | CCOC(=O)c1ccc(C=O)cn1
226 | COc1cc(OC)c(C(=O)CCCCN2CCC3(CC2)NC(=O)NC3=O)cc1NS(=O)(=O)c1ccc(C(F)(F)F)cc1
159 to 162 | O=C(NCCC[C@H]1OC[C@H](c2cccc3cc(OCC4CC4)ccc32)CO1)Oc1ccc(Cl)cc1
